The structures appear in SMILES notation.

The term IC50 denotes the concentration that inhibits the measured activity by half.

The test addresses T1, human B1R (Homo sapiens, UniProt P46663).
T1 construct: host or cells: HEK293
T1 sequence (P46663 1-353): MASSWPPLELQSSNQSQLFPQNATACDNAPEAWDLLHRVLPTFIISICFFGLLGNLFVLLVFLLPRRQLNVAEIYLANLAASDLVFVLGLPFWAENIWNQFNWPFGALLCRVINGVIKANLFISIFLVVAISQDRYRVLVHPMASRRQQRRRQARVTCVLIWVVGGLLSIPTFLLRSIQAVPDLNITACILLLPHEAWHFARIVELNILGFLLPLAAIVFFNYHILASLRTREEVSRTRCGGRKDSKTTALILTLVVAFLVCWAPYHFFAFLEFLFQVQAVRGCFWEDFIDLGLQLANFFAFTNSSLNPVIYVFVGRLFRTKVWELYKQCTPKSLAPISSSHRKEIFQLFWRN
Put plainly: FLIPR calcium ion flux assay, inhibitory activity against human B1R. Type of test: cell-based. The note with it: HEK293 cells stably expressing human B1R; agonist [Lys-des-Arg9]-Bradykinin 4.6 nM (EC80); FLIPR method. Here is the method:
The inhibitory activity of the compounds against human B1R and B2R channels was determined by calcium ion flux assay using fluorometric imaging plate reader (FLIPR method). See literatures of Lee, Chen et al. for the method. [Lee et al. 2008][Chen et al. 2011]
1. Cell culture: HEK293 recombinant cell lines (WuXi AppTec, Shanghai, China) stably expressing human B1R and B2R were cultured in DMEM (Invitrogen, Cat #11965) medium containing 10% calf serum (Excellbio, Cat #FSP500), 5 μg/ml Geneticin (Invitrogen, Cat #10131) and Penicillin/Streptomycin (Invitrogen, Cat #15140). The incubator conditions were 37° C. and ambient humidity containing 5% CO2.
2. Preparation of the cell assay plate: B1R and B2R cells were seeded in a 384-well assay plate (Greiner, Cat #781090) at a density of 20,000 cells per well (20 μl/well), and cultured overnight at 37° C. in an incubator with 5% CO2. The next day, Fluo-4 Direct™ Loading Buffer (containing 5 mM Probenicid) containing 2× (8 μM) Fluo-4 Direct (Invitrogen, Cat #F10471) was added to each of the wells. The cells were cultured at 37° C. for 50 min, and then culture for at the room temperature 10 min.
3. Preparation of the compound assay plate: The compound was dissolved in 100% DMSO to make a 30 mM stock solution and stored at −20° C. On the day of use, the stock solution of the compound was thawed at the room temperature. Each of the compounds was serially diluted at 1:5 in DMSO culture medium with a starting concentration of 30 μM for 9 concentration points on a 384-well plate. Each of compounds was diluted in duplicate for testing. [Des-Arg10]-HOE140 was used as a positive control compound, and diluted in the same manner with a starting concentration of 3 μM.
4. FLIPR assay: The cell assay plate was placed in a FLIPR instrument ([…]). The compounds in the compound assay plate were added to the corresponding wells on the cell assay plate (10 μL/well) using an automatic program. The calcium ion fluorescence signal was recorded to determine whether the compound may have agonist activity. After 10 minutes, a B1R agonist [Lys-des-Arg9]-Bradykinin2 (10 μL/well) with a final concentration of 4.6 nM (EC80) was added to each of the wells to stimulate the generation of intracellular calcium ion flux signals. The Ca^++-dependent fluorescence signal was continuously monitored at a wavelength of 538 nm to analyze the inhibitory activity of the compound.
5. Data analysis: The data was collected and analyzed by a FLIPR program. The inhibitory (or agonist) activity of the compound at each concentration was evaluated by the fluorescence peak. The IC50 values of the compounds were calculated using EXCEL and PRISM programs.
Consider `COc1ccc(-c2ccc(NC(=O)N3CCC(C(C)(C)C)CC3)cc2-c2nn[nH]n2)cc1OC` [Compound 1, 4-(tert-butyl)-N-(3′,4′-dimethoxy-2-(2H-tetrazol-5-yl)-[1,1′-biphenyl]-4-yl)piperidine-1-carboxamide], for which the IC50 worked out at 40 nM.
Turning to `COc1ccc(-c2ccc(NC(=O)N3CCC4(CCCO4)CC3)cc2-c2nn[nH]n2)cc1OC` [Compound 3, N-(3′,4′-dimethoxy-2-(2H-tetrazol-5-yl)-[1,1′-biphenyl]-4-yl)-1-oxy-8-azaspiro[4.5]decane-1-carboxamide], the IC50 was 1330 nM.
The same measure for `COc1ccc(-c2ccc(NC(=O)N3CCC4CCOC4C3)cc2-c2nn[nH]n2)cc1OC` (stereo not drawn) [Compound 4, N-(3′,4′-dimethoxy-2-(2H-tetrazol-5-yl)-[1,1′-biphenyl]-4-yl)hexahydrofuro[2,3-c]pyridine-6(2H)-carboxamide]: 5320 nM; for `CCOc1ccc(-c2ccc(NC(=O)N3CCC(C)CC3)cc2-c2nn[nH]n2)cn1` [Compound 5, N-(4-(6-ethoxypyrid-3-yl)-3-(2H-tetrazol-5-yl)phenyl)-4-methylpiperidine-1-carboxamide]: 162 nM.
To `CCOc1ccc(-c2ccc(NC(=O)N3CCC(C(C)(C)C)CC3)cc2-c2nn[nH]n2)cn1` [Compound 6, 4-(tert-butyl)-N-(4-(6-ethoxypyrid-3-yl)-3-(2H-tetrazol-5-yl)phenyl)piperidine-1-carboxamide] belongs 23.6 nM.
To `CCOc1ccc(-c2ncc(NC(=O)N3CCC(C(C)(C)C)CC3)cc2-c2nn[nH]n2)cn1` [Compound 7, 4-(tert-butyl)-N-(6′-ethoxy-3-(2H-tetrazol-5-yl)-[2,3′-bipyridyl]-5-yl)piperidine-1-carboxamide] belongs 57.8 nM; to `CC(C)(C)C1CCN(C(=O)Nc2ccc(-c3cnn(C4CCC4)c3)c(-c3nn[nH]n3)c2)CC1` [Compound 9, 4-(tert-butyl)-N-(4-(1-cyclobutyl-1H-pyrazol-4-yl)-3-(2H-tetrazol-5-yl)phenyl) piperidine-1-carboxamide], 45.9 nM; to `Cn1ncc2cc(-c3ccc(NC(=O)N4CCC(C(C)(C)C)CC4)cc3-c3nn[nH]n3)ccc21` [Compound 10, 4-(tert-butyl)-N-(4-(1-methyl-1H-indazol-5-yl)-3-(2H-tetrazol-5-yl)phenyl)piperidine-1-carboxamide], 18.3 nM.
Consider `COc1ccc(-c2ccc(NC(=O)N3CCC(C)(C)CC3)cc2-c2nn[nH]n2)cc1OC` [Compound 12, N-(3′,4′-dimethoxy-2-(2H-tetrazol-5-yl)-[1,1′-biphenyl]-4-yl)-4,4-dimethylpiperidine-1-carboxamide], for which the IC50 was 148 nM.
To `COc1ccc(-c2ccc(NC(=O)N3CCC(C(C)(C)C)CC3)cc2-c2nn[nH]n2)cc1C` [Compound 13, 4-(tert-butyl)-N-(4′-methoxy-3′-methyl-2-(2H-tetrazol-5-yl)-[1,1′-biphenyl]-4-yl)piperidine-1-carboxamide] belongs 26.2 nM; to `COc1ccc(-c2ccc(NC(=O)N3CCC(C(C)(C)C)CC3)cc2-c2nn[nH]n2)cc1Cl` [Compound 14, 4-(tert-butyl)-N-(3′-chloro-4′-methoxy-2-(2H-tetrazol-5-yl)-[1,1′-biphenyl]-4-yl)piperidine-1-carboxamide], 23.5 nM.
Regarding `CC(C)(C)C1CCN(C(=O)Nc2ccc(C(=O)OC3CCCCC3)c(-c3nn[nH]n3)c2)CC1` [Compound 15, cyclohexyl 4-(4-(tert-butyl)piperidine-1-formamido)-2-(2H-tetrazol-5-yl)benzoate], the IC50 was determined as 39.8 nM.
Take `CCOC(=O)c1ccc(NC(=O)N2CCC(C(C)(C)C)CC2)cc1-c1nn[nH]n1` [Compound 16, ethyl 4-(4-(tert-butyl)piperidine-1-formamido)-2-(2H-tetrazol-5-yl)benzoate]: the IC50 is 28.2 nM.
To `CC(C)(C)C1CCN(C(=O)Nc2cc(F)c(C(=O)OC3CCCCC3)c(-c3nn[nH]n3)c2)CC1` [Compound 17, cyclohexyl 4-(4-(tert-butyl)piperidine-1-formamido)-2-fluoro-6-(2H-tetrazol-5-yl)benzoate] belongs 29.6 nM.
The same measure for `CC(C)(C)C1CCN(C(=O)Nc2cc(F)c(-c3ccc(C(F)(F)F)nc3)c(-c3nn[nH]n3)c2)CC1` [Compound 18, 4-(tert-butyl)-N-(3-fluoro-5-(2H-tetrazol-5-yl)-4-(6-(trifluoromethyl)pyrid-3-yl)phenyl)piperidine-1-carboxamide]: 9.9 nM; for `COc1ccc(-c2ccc(NS(=O)(=O)N3CCC(C)CC3)cc2-c2nn[nH]n2)cc1OC` [Compound 19, N-(3′,4′-dimethoxy-2-(2H-tetrazol-5-yl)-[1,1′-biphenyl]-4-yl)-4-methylpiperidine-1-sulfamide]: 1140 nM; for `COc1ccc(-c2c(F)cc(NC(=O)N3CCC(C)CC3)cc2-c2nn[nH]n2)cc1OC` [Compound 20, N-(2-fluoro-3′,4′-dimethoxy-6-(2H-tetrazol-5-yl)-[1,1′-biphenyl]-4-yl)-4-methyl piperidine-1-carboxamide]: 32.3 nM.
The same measure for `CC1CCN(C(=O)Nc2ccc(-c3ccc4c(cnn4C)c3)c(-c3nn[nH]n3)c2)CC1` [Compound 21, 4-methyl-N-(4-(1-methyl-1H-indazol-5-yl)-3-(2H-tetrazol-5-yl)phenyl)piperidine-1-carboxamide]: 21.1 nM; for `COc1ccc(-c2ccc(NC(=O)N3CCC(C)CC3)cc2-c2nn[nH]n2)cc1Cl` [Compound 22, N-(3′-chloro-4′-methoxy-2-(2H-tetrazol-5-yl)-[1,1′-biphenyl]-4-yl)-4-methylpiperidine-1-carboxamide]: 30.2 nM.
With `CC1CCN(C(=O)Nc2cc(F)c(C(=O)OC3CCCCC3)c(-c3nn[nH]n3)c2)CC1` [Compound 23, cyclohexyl 2-fluoro-4-(4-methylpiperidine-1-formamido)-6-(2H-tetrazol-5-yl)benzoate], the IC50 was determined as 44.6 nM.
On to `CCOC(=O)c1ccc(NC(=O)N2CCC(C)CC2)cc1-c1nn[nH]n1` [Compound 24, ethyl 4-(4-methylpiperidine-1-formamido)-2-(2H-tetrazol-5-yl)benzoate], for which the 50% inhibitory concentration (IC50) is 35.7 nM.
To `COc1ccc(-c2c(F)cc(NC(=O)N3CCC(C(F)(F)F)CC3)cc2-c2nn[nH]n2)cc1OC` [Compound 26, N-(2-fluoro-3′,4′-dimethoxy-6-(2H-tetrazol-5-yl)-[1,1′-biphenyl]-4-yl)-4-(trifluoromethyl)piperidine-1-carboxamide] belongs 54.4 nM; to `Cn1ncc2cc(-c3ccc(NC(=O)N4CCC(C(F)(F)F)CC4)cc3-c3nn[nH]n3)ccc21` [Compound 27, N-(4-(1-methyl-1H-indazol-5-yl)-3-(2H-tetrazol-5-yl)phenyl)-4-(trifluoromethyl)piperidine-1-carboxamide], 25.7 nM; to `COc1ccc(-c2ccc(NC(=O)N3CCC(C(F)(F)F)CC3)cc2-c2nn[nH]n2)cc1Cl` [Compound 28, N-(3′-chloro-4′-methoxy-2-(2H-tetrazol-5-yl)-[1,1′-biphenyl]-4-yl)-4-(trifluoromethyl)piperidine-1-carboxamide], 24.5 nM.
To `O=C(OC1CCCCC1)c1c(F)cc(NC(=O)N2CCC(C(F)(F)F)CC2)cc1-c1nn[nH]n1` [Compound 29, cyclohexyl 2-fluoro-6-(2H-tetrazol-5-yl)-4-(4-(trifluoromethyl)piperidine-1-formamido)benzoate] belongs 34.6 nM; to `CCOC(=O)c1ccc(NC(=O)N2CCC(C(F)(F)F)CC2)cc1-c1nn[nH]n1` [Compound 30], 35.4 nM; to `CCOc1ccc(-c2c(F)cc(NC(=O)N3CCC(C)CC3)cc2-c2nn[nH]n2)cn1` [Compound 31, N-(4-(6-ethoxypyrid-3-yl)-3-fluoro-5-(2H-tetrazol-5-yl)phenyl)-4-methylpiperidine-1-carboxamide], 19.2 nM.
